Measured values reported in PMC8151848, “Tambjamines and Prodiginines: Biocidal Activity against Trypanosoma cruzi” (Pharmaceutics, 2021).
Where two headings read alike, the source gives them in different places.

Key:
[1] = test system: epimastigotes of T. cruzi (CL strain, clone B5); test: Epimastigote susceptibility assay (monotherapy); format: cell-based, Trypanosoma cruzi
Procedure: The CL-B5 strain was stably transfected with the Escherichia coli β-galactosidase gene (lacZ) and routinely maintained in exponential growth by weekly passages. Trypomastigotes of the CL-B5 strain were obtained as previously reported.
The screening assays were performed in 96-well microplates (WWR Int LLC) containing serially diluted concentrations of each compound and seeded with 2.5 × 10^5 epimastigotes/mL harvested during the exponential growth phase. Growth, medium, and drug blanks were used in each assay as controls. An internal control of the reference drug, benznidazole, was also included. After 72 h at 28 °C, 50 µL of the substrate chlorophenol red-β-D-galactopyranoside (CPRG; Roche) diluted in 0.9% Triton X-100 solution (EMD, Darmstadt, Germany) were added at a final concentration of 200 µM. Then, after 3 h at 37 °C, measurements were performed in a scanning multiwell spectrophotometer (ELISA Multiskan Reader, BioTek Instruments, Inc., Winooski, VT, USA) at 595 nm. Each concentration was tested in triplicate and the experiments were performed three times independently. The efficacy of the compounds was calculated by determining the percentage of epimastigote growth (% EG value) as follows:(1) % Epimastigote growth=(AE−AEB)/(AC−ACB)×100 where AE is the absorbance of the experimental group, AEB the absorbance of the drug blank, AC the absorbance of the control group, and ACB the absorbance of the culture medium blank. The IC50 values (the drug concentration that eliminates 50% of the parasites) were determined for each compound using the GraphPad Prism software (Version 5.0.0 for Windows, GraphPad Software, San Diego, CA, USA).

[2] = Cytotoxicity assay (resazurin) in L-929 fibroblasts; format: cell-based, mouse; conditions: mouse, L-929, 16 µM, n = 9, read-out: % Cytotoxicity ± SD
Excerpt: (§1) Mouse L-929 fibroblasts (NCTC clone 929, ECACC 88102702) were used for both drug toxicity and infection assays. Cell line was obtained from Dr. Concepció Soler, Dept. Pathology & Experimental therapeutics, Faculty of Medicine and Health Sciences, University of Barcelona, Spain. Human hepatocarcinoma Hep G2 cells (American Type Culture Collection (ATCC HB-8065)) were employed only in the drug toxicity assays and were obtained from Dr. Neus Agell, Cell Biology Research Group, Faculty of Medicine and Health Sciences, University of Barcelona, Spain.
(§2) Cells were seeded by trypsinization in 96-well microplates (L-929: 4 × 10^3 cells/well; Hep G2: 1.5 × 10^4 cells/well) and incubated for 24 h at 37 °C to allow cell attachment. On the following day, the medium was discarded and replaced with a fresh medium containing the different concentrations of the drugs. Hep G2 cells were treated with concentrations of 100, 10, and 1 µM of the different drugs, while L-929 cells were treated with a wider range of concentrations in order to calculate the IC50 value (the drug concentration that inhibits 50% of cell growth). Medium, growth, and drug blanks were used in each test as controls. Plates were incubated again for another 24 h. After treatment, 20 µL of resazurin diluted in 1X phosphate-buffered saline (PBS; Sigma Aldrich) was added at a final concentration of 70 µM. The plates were incubated for another 24 h, after which fluorescence was measured in a microplate reader (FLUOstar OPTIMA, BMG LABTECH GmbH, Ortenberg, Germany) at an excitation wavelength of 530 nm and an emission wavelength of 590 nm. Each concentration was tested in triplicate and the experiments were repeated three times independently. Results indicated the percentage of toxicity (% T value). (3) % Toxicity=100−(AE−AEB)/(AC−ACB)×100 where AE is the absorbance of the experimental group, AEB the absorbance of the drug blank, AC the absorbance of the untreated cells, and ACB the absorbance of the culture medium blank. For the L-929 fibroblasts, the IC50 values (the drug concentration that inhibits 50% of cell growth) were calculated for each compound using the GraphPad Prism software.

[3] = test system: murine L-929 fibroblasts (NCTC clone 929); test: as above; format: cell-based, mouse
Excerpt: as §1, §2

[4] = test system: human hepatocarcinoma cells (Hep G2); test: Cytotoxicity assay (resazurin) in Hep G2 cells; format: cell-based; conditions: for Cytotoxicity (% cell growth inhibition) at 1 µM ± SD: Hep G2, 1 µM
Excerpt: as §1
as §2, with “Hep G2 cells were treated with concentrations of 100, 10, and 1 µM of the different drugs, while L-929 cells were treated with a wider range of concentrations in order to calculate the IC50 value (the drug concentration that inhibits 50% of cell growth).” left out, “For the L-929 fibroblasts, the IC50 values (the drug concentration that inhibits 50% of cell growth) were calculated for each compound using the GraphPad Prism software.” left out

[5] = Trypanosoma cruzi, CLB strain, 72 h at 28 °C, mean ± SD, read-out: IC50 (µM) in epimastigotes of T. cruzi
[6] = L-929 fibroblasts (NCTC clone 929)
[7] = Mus musculus, L929, read-out: IC50 (µM) L-929 cell growth inhibition
[8] = Homo sapiens, HepG2, read-out: IC50 (µM) Hep G2 cell growth inhibition
[9] = IC50 for L-929 fibroblasts / IC50 for T. cruzi epimastigotes

SMILES	IC50 [1, 5]	cytotoxicity at 24 h, 16 µM [2, 6]	IC50 [3, 7]	IC50 [4, 8]	Selectivity index (SI), Epimastigotes [1, 9]	Cytotoxicity (% cell growth inhibition) at 1 µM ± SD ([4]; n = 9)	further results
COC1=CC(c2cc3ccccc3[nH]2)=N/C1=C\c1[nH]c(C)cc1C [Obatoclax, reference compound]	3.46 ± 0.96 µM	63.5 ± 1.63%	5.83 ± 1.07 µM	8.18 ± 1.87 µM			Selectivity index (SI), Epimastigotes [1]: 1.68
CCCCCC1=C/C(=C/c2[nH]c(-c3ccc[nH]3)cc2OC)N=C1C [Natural prodigiosin, prodigiosin]					9.25	2.29 ± 3.97%	IC50 ([1]; read-out: IC50 (µM) in epimastigotes of T. cruzi, CLB strain, 72 h at 28 °C, mean ± SD): 0.54 ± 0.25 µM; cytotoxicity at 24 h, 16 µM [2]: 95.8 ± 0.09%; IC50 ([3]; Mus musculus, L929, read-out: IC50 (µM) L-929 cell growth inhibition, L-929): 5 ± 0.83 µM; Cytotoxicity (% cell growth inhibition) at 10 µM ± SD ([4]; Hep G2, 10 µM, n = 9, 10 µM): 87.97 ± 5.94%; IC50 ([4]; read-out: IC50 (µM) Hep G2 cell growth inhibition, Hep G2): 6.02 ± 0.5 µM
CCc1c(-c2ccc[nH]2)[nH]c(/C=N/C2CCCCC2)c1C [MM3]	4.52 ± 1.43 µM	88.4 ± 2.75%	12.2 ± 0.28 µM	46 ± 8.15 µM	2.70		
O=C(Cn1ccnc1[N+](=O)[O-])NCc1ccccc1 [Benznidazole, reference compound]	19 ± 7.07 µM	0%	1372.3 ± 0.5 µM	> 100 µM	72.37		
CCc1c(-c2ccc[nH]2)[nH]c(/C=N/c2ccc(C(C)(C)C)cc2)c1C [MM4]	5.08 ± 0.62 µM	64.2 ± 10.5%	14 ± 1.28 µM	52.5 ± 9.21 µM	2.76		
CCCCCC1=C/C(=C/c2[nH]c(-c3ccc[nH]3)cc2OC)N=C1C [Synthetic prodigiosin, prodigiosin]					6.65	15 ± 6.12%	IC50 ([1]; Trypanosoma cruzi, 72 h, read-out: IC50 (µM) in epimastigotes of T. cruzi, CLB strain, 72 h at 28 °C, mean ± SD): 0.46 ± 0.03 µM; % Cytotoxicity ± SD ([3]; L-929, 16 µM, n = 9, 16 µM): 95.75 ± 0.06%; IC50 ([3]; read-out: IC50 (µM) L-929 cell growth inhibition, L-929): 3.06 ± 0.01 µM; IC50 ([4]; Homo sapiens, HepG2, read-out: IC50 (µM) Hep G2 cell growth inhibition, Hep G2): 5.15 ± 0.39 µM
